Measured values as given in PubChem BioAssay (NCI).
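Method: 48-hour compound exposure of cells in 96-well plates, five concentrations, linear interpolation of endpoints. TGI marks complete inhibition of growth.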

What was measured:
Assay in all cases: inhibition of tumour cell growth, NCI panel, 48 h
[1] = test system: IGROV1 ovarian
[2] = test system: M14 melanoma
[3] = test system: 786-0 renal
[4] = test system: A549 NSCLC
[5] = test system: NCI/ADR-RES ovarian
[6] = test system: UO-31 renal
[7] = test system: NCI-H226 lung
[8] = test system: SN12C renal
[9] = test system: HS 578T breast
[10] = test system: K-562 leukemia
[11] = test system: HOP-92 NSCLC
[12] = test system: OVCAR-4 ovarian
[13] = test system: SK-MEL-28 melanoma
[14] = test system: NCI-H460 lung
[15] = test system: PC-3 prostate
[16] = test system: SNB-75 CNS
[17] = test system: EKVX NSCLC
[18] = test system: DU-145 prostate
[19] = test system: RXF 393 renal
[20] = test system: SW-620 colon
[21] = test system: HOP-62 NSCLC
[22] = test system: UACC-257 melanoma
[23] = test system: NCI-H522 lung
[24] = test system: SK-MEL-5 melanoma
[25] = test system: HT29 colon
[26] = test system: SK-OV-3 ovarian
[27] = test system: MDA-N
[28] = test system: MALME-3M melanoma
[29] = test system: COLO 205 colon
[30] = test system: T-47D breast
[31] = test system: KM12 colon
[32] = test system: SF-539 CNS
[33] = test system: CAKI-1 renal
[34] = test system: U251 CNS
[35] = test system: MDA-MB-435
[36] = test system: BT-549 breast
[37] = test system: MDA-MB-231 breast
[38] = test system: HCT-116 colon
[39] = test system: UACC-62 melanoma
[40] = test system: HL-60(TB) leukemia
[41] = test system: SR leukemia
[42] = test system: OVCAR-5 ovarian
[43] = test system: MCF7 breast
[44] = test system: TK-10 renal
[45] = test system: RPMI-8226 leukemia
[46] = test system: ACHN renal
[47] = test system: SF-295 CNS
[48] = test system: OVCAR-3 ovarian
[49] = test system: SF-268 CNS
[50] = test system: OVCAR-8 ovarian
[51] = test system: HCC-2998 colon
[52] = test system: SK-MEL-2 melanoma
[53] = test system: HCT-15 colon
[54] = test system: MOLT-4 leukemia
[55] = test system: SNB-19 CNS
[56] = test system: CCRF-CEM leukemia
[57] = test system: LOX IMVI melanoma
[58] = test system: NCI-H23 lung

With `CC1=C(/C=C/C(C)=C/C=C/C(C)=C/C(=O)OCC2OC(n3cc(F)c(=O)[nH]c3=O)CC2OC(=O)/C=C(C)/C=C/C=C(C)/C=C/C2=C(C)CCCC2(C)C)C(C)(C)CCC1` (configuration not stated) the TGI [1] was 20 µM, the TGI [2] was > 48.3 µM and the TGI [3] was > 46.1 µM. The TGI [4] was > 48.5 µM, the TGI [5] was > 100 µM and the TGI [6] was > 26.3 µM. The TGI [7] was > 69.3 µM, the TGI [8] was > 31.6 µM and the TGI [9] was > 68.8 µM. The TGI [10] was > 72.5 µM, the TGI [11] was 37.1 µM and the TGI [12] was > 81.8 µM. For the same compound, the TGI [13] was > 77.6 µM, the TGI [14] was > 26.7 µM and the TGI [15] was > 56.2 µM. For the same compound, the TGI [16] was > 100 µM, the TGI [17] was > 100 µM and the TGI [18] was > 46.3 µM. The TGI [19] was > 100 µM, the TGI [20] was > 52.5 µM and the TGI [21] was > 27.9 µM. The TGI [22] was > 92.1 µM, the TGI [23] was 28.2 µM and the TGI [24] was 19.8 µM. The TGI [25] was > 100 µM, the TGI [26] was > 100 µM and the TGI [27] was > 48.4 µM. For the same compound, the TGI [28] was > 100 µM, the TGI [29] was > 60.1 µM and the TGI [30] was > 64.7 µM. The TGI [31] was > 74.7 µM, the TGI [32] was > 100 µM and the TGI [33] was > 100 µM. The TGI [34] was > 54.1 µM, the TGI [35] was > 65.8 µM and the TGI [36] was > 76.3 µM. The TGI [37] was > 86.8 µM, the TGI [38] was 27.1 µM and the TGI [39] was > 23.8 µM. For the same compound, the TGI [40] was > 41.9 µM, the TGI [41] was > 59.6 µM and the TGI [42] was > 67.6 µM. The TGI [43] was 36.8 µM, the TGI [44] was > 58.4 µM and the TGI [45] was 42.6 µM. The TGI [46] was > 48.3 µM, the TGI [47] was > 40.2 µM and the TGI [48] was > 39.5 µM. The TGI [49] was > 85.3 µM, the TGI [50] was > 66.7 µM and the TGI [51] was 15 µM. The TGI [52] was > 100 µM, the TGI [53] was > 57.1 µM and the TGI [54] was > 100 µM. The TGI [55] was > 100 µM, the TGI [56] was > 28.8 µM and the TGI [57] was 25.8 µM. For the same compound, the TGI [58] was > 90 µM.

With `Cc1c(N2C(=O)/C(=C/C=C/c3ccccc3)N=C2c2ccccc2)c(=O)n(-c2ccccc2)n1C` the TGI [1] was 35.5 µM, the TGI [2] was > 100 µM and the TGI [3] was > 100 µM. For the same compound, the TGI [4] was 69.8 µM, the TGI [5] was 55 µM and the TGI [6] was 32.6 µM. The TGI [7] was 58.4 µM, the TGI [8] was 69 µM and the TGI [10] was 75 µM. For the same compound, the TGI [11] was 51.3 µM, the TGI [12] was 50.3 µM and the TGI [14] was > 100 µM. The TGI [15] was 76.9 µM, the TGI [16] was 32.1 µM and the TGI [17] was 36.5 µM. For the same compound, the TGI [18] was > 100 µM, the TGI [19] was 33.2 µM and the TGI [20] was 99.4 µM. For the same compound, the TGI [21] was 85.3 µM, the TGI [22] was 42.1 µM and the TGI [23] was 32.6 µM. The TGI [24] was 30.8 µM, the TGI [25] was 54 µM and the TGI [26] was 66.9 µM. The TGI [27] was 38.3 µM, the TGI [28] was 92.2 µM and the TGI [29] was 30.3 µM. For the same compound, the TGI [30] was > 100 µM, the TGI [31] was 80.3 µM and the TGI [32] was 47.1 µM. For the same compound, the TGI [33] was > 100 µM, the TGI [34] was 33 µM and the TGI [35] was 33.1 µM. For the same compound, the TGI [36] was 40.2 µM, the TGI [37] was 47.3 µM and the TGI [38] was > 100 µM. For the same compound, the TGI [39] was 32 µM, the TGI [40] was 35.7 µM and the TGI [41] was 47.1 µM. For the same compound, the TGI [42] was 51.7 µM, the TGI [43] was > 100 µM and the TGI [44] was > 100 µM. For the same compound, the TGI [45] was 47.6 µM, the TGI [46] was 34.1 µM and the TGI [47] was 40 µM. The TGI [48] was 46.6 µM, the TGI [49] was 68.9 µM and the TGI [50] was 77.6 µM. For the same compound, the TGI [52] was 44.5 µM, the TGI [53] was 21 µM and the TGI [54] was 78.8 µM. The TGI [56] was 99.2 µM, the TGI [57] was 52 µM and the TGI [58] was 61.1 µM.
